Measurements as given in ChEMBL document CHEMBL2203035, “Synthesis and docking studies of novel antitumor benzimidazoles” (Bioorg Med Chem, 2012).

Assays:
[1] = tested on: A549; assay: Downregulation of uPA protein expression in human A549 cell extract at 0.137 uM after 48 hrs by ELISA; assay type: functional
[2] = tested on: MCF7; assay: Downregulation of uPA protein expression in human MCF7 cell extract at 0.35 uM after 48 hrs by ELISA (reference value: 1 1.4000 +/- 1.40 ng/ml); assay type: functional
[3] = tested on: A549; assay: Downregulation of uPA protein expression in human A549 cell extract at 0.55 uM after 48 hrs by ELISA (reference value: 11.0000 +/-1.60 ng/ml); assay type: functional
[4] = tested on: Raji; assay: Inhibition of tumor promotion in human Raji cells assessed as TPA-induced Epstein-Barr virus early antigen activation at 500 mol ratio/TPA after 48 hrs by indirect immunofluorescence analysis relative to TPA alone; assay type: functional; design: scale not given: the % may be the effect or the level left
[5] = tested on: Raji; assay: Inhibition of tumor promotion in human Raji cells assessed as TPA-induced Epstein-Barr virus early antigen activation at 100 mol ratio/TPA after 48 hrs by indirect immunofluorescence analysis relative to TPA alone; assay type: functional; design: scale not given: the % may be the effect or the level left
[6] = tested on: MCF7; assay: Downregulation of uPA protein expression in human MCF7 cell extract at 0.70 ug/well after 48 hrs by ELISA (reference value: 1 1.4000 +/- 1.40 ng/ml)
[7] = tested on: A549; assay: Cytotoxicity against human A549 cells after 72 hrs by alamar blue assay; assay type: functional, cell-based; settings: A549, 72 h
[8] = tested on: Raji; assay: Inhibition of tumor promotion in human Raji cells assessed as TPA-induced Epstein-Barr virus early antigen activation at 10 mol ratio/TPA after 48 hrs by indirect immunofluorescence analysis relative to TPA alone; assay type: functional; design: scale not given: the % may be the effect or the level left
[9] = tested on: A549; assay: Downregulation of uPA protein expression in human A549 cell extract at 0.275 uM after 48 hrs by ELISA (reference value: 11.0000 +/-1.60 ng/ml); assay type: functional
[10] = tested on: MCF7; assay: Downregulation of uPA protein expression in human MCF7 cell extract at 0.087 uM after 48 hrs by ELISA (reference value: 1 1.4000 +/- 1.40 ng/ml); assay type: functional
[11] = tested on: MCF7; assay: Downregulation of uPA protein expression in human MCF7 cell extract at 0.175 uM after 48 hrs by ELISA (reference value: 1 1.4000 +/- 1.40 ng/ml); assay type: functional
[12] = biological target: Urokinase plasminogen activator surface receptor (Homo sapiens, UniProt Q03405); assay: Binding affinity to uPAR
Urokinase plasminogen activator surface receptor, sequence (Q03405 whole entry): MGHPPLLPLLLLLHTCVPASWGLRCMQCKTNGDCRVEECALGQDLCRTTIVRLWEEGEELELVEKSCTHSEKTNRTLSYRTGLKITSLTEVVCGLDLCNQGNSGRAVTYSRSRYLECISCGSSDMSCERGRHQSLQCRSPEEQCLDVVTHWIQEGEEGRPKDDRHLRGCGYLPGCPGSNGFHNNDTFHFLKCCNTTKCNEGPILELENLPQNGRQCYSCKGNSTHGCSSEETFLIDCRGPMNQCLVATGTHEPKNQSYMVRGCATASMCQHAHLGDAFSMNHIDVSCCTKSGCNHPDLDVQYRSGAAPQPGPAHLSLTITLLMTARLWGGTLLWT

[13] = tested on: A549; assay: Downregulation of uPA protein expression in human A549 cell extract at 0.275 uM after 48 hrs by ELISA; assay type: functional
[14] = tested on: A549; assay: Downregulation of uPA protein expression in human A549 cell extract at 1.10 uM after 48 hrs by ELISA; assay type: functional
[15] = tested on: Raji; assay: Inhibition of tumor promotion in human Raji cells assessed as TPA-induced Epstein-Barr virus early antigen activation at 1000 mol ratio/TPA after 48 hrs by indirect immunofluorescence analysis relative to TPA alone; assay type: functional; design: scale not given: the % may be the effect or the level left
[16] = tested on: MCF7; assay: cells; settings: Homo sapiens, MCF7, 48 h
Description: Cytotoxicity against human MCF7 cells after 48 hrs by sulforhodamine B assay

[17] = tested on: A549; assay: Downregulation of uPA protein expression in human A549 cell extract at 1.10 uM after 48 hrs by ELISA (reference value: 11.0000 +/-1.60 ng/ml); assay type: functional
[18] = tested on: A549; assay: Downregulation of uPA protein expression in human A549 cell extract at 0.137 uM after 48 hrs by ELISA (reference value: 11.0000 +/-1.60 ng/ml); assay type: functional
[19] = tested on: A549; assay: Downregulation of uPA protein expression in human A549 cell extract at 0.55 uM after 48 hrs by ELISA; assay type: functional
[20] = tested on: MCF7; assay: Downregulation of uPA protein expression in human MCF7 cell extract at 0.60 uM after 48 hrs by ELISA (reference value: 1 1.4000 +/- 1.40 ng/ml); assay type: functional
[21] = tested on: MCF7; assay: Downregulation of uPA protein expression in human MCF7 cell extract at 0.30 uM after 48 hrs by ELISA (reference value: 1 1.4000 +/- 1.40 ng/ml); assay type: functional
[22] = tested on: MCF7; assay: Downregulation of uPA protein expression in human MCF7 cell extract at 0.075 uM after 48 hrs by ELISA (reference value: 1 1.4000 +/- 1.40 ng/ml); assay type: functional
[23] = tested on: MCF7; assay: Downregulation of uPA protein expression in human MCF7 cell extract at 0.15 uM after 48 hrs by ELISA (reference value: 1 1.4000 +/- 1.40 ng/ml); assay type: functional
[24] = tested on: A549; assay: Downregulation of uPA protein expression in human A549 cell extract at 0.40 uM after 48 hrs by ELISA (reference value: 11.0000 +/-1.60 ng/ml); assay type: functional
[25] = tested on: A549; assay: Downregulation of uPA protein expression in human A549 cell extract at 0.05 uM after 48 hrs by ELISA (reference value: 11.0000 +/-1.60 ng/ml); assay type: functional
[26] = tested on: A549; assay: Downregulation of uPA protein expression in human A549 cell extract at 0.20 uM after 48 hrs by ELISA (reference value: 11.0000 +/-1.60 ng/ml); assay type: functional
[27] = tested on: A549; assay: Downregulation of uPA protein expression in human A549 cell extract at 0.10 uM after 48 hrs by ELISA (reference value: 11.0000 +/-1.60 ng/ml); assay type: functional

**Q.** For `Nc1c(-c2nc3ccccc3[nH]2)cc(-c2ccccc2)n1-c1ccncc1`, which Activity [1] is on record?
**A.** 44%

**Q.** What about the Activity [2] of the same compound?
**A.** 9 ng/mL

**Q.** And the Activity [3]?
**A.** 4.8 ng/mL

**Q.** And the Activity [4]?
**A.** 46.9%

**Q.** What about the Activity [5] of the same compound?
**A.** 78.6%

**Q.** What about the Activity [6] of the same compound?
**A.** 9.4 ng/mL

**Q.** What about the IC50 [7] of the same compound?
**A.** 1100 nM

**Q.** And the Activity [8]?
**A.** 100%

**Q.** What about the Activity [9] of the same compound?
**A.** 5.2 ng/mL

**Q.** And the Activity [10]?
**A.** 9.8 ng/mL

**Q.** And the Activity [11]?
**A.** 8.7 ng/mL

**Q.** What about the Ki [12] of the same compound?
**A.** 0.001 nM

**Q.** What about the Activity [13] of the same compound?
**A.** 53%

**Q.** And the Activity [14]?
**A.** 75%

**Q.** And the Activity [15]?
**A.** 15.3%

**Q.** And the IC50 [16]?
**A.** 0.705 µg/well

**Q.** And the Activity [17]?
**A.** 2.7 ng/mL

**Q.** What about the Activity [18] of the same compound?
**A.** 6.2 ng/mL

**Q.** What about the Activity [19] of the same compound?
**A.** 56%

**Q.** `COc1cccc2c1C(=O)c1c(O)c3c(c(O)c1C2=O)C[C@@](O)(C(=O)CO)C[C@@H]3O[C@H]1C[C@H](N)[C@H](O)[C@H](C)O1` [DOXORUBICIN] was tested. Which Activity [20] did it give?
**A.** 2.75 ng/mL

**Q.** And the Activity [21]?
**A.** 3 ng/mL

**Q.** What about the Activity [22] of the same compound?
**A.** 3.4 ng/mL

**Q.** And the Activity [23]?
**A.** 3.2 ng/mL

**Q.** Which results are given for `CO[C@@]12[C@H](COC(N)=O)C3=C(C(=O)C(C)=C(N)C3=O)N1C[C@@H]1N[C@@H]12` [MITOMYCIN]?
**A.** Activity [24]: 2.4 ng/mL; Activity [25]: 4.3 ng/mL; Activity [26]: 2.6 ng/mL; Activity [27]: 3.3 ng/mL
